Active and inactive are the calls of the source. How the calls were made is not given here.
These compounds were tested against Potassium voltage-gated channel subfamily KQT member 2 (Rattus norvegicus) (UniProt O88943) (assay: KCNQ2 channel inhibitors, SAR follow-up, cell-based, automated electrophysiology (AID 652152)). Settings: KCNQ2-expressing cells, automated patch-clamp current.
Potassium voltage-gated channel subfamily KQT member 2 (Rattus norvegicus), sequence (O88943 whole entry, looked up): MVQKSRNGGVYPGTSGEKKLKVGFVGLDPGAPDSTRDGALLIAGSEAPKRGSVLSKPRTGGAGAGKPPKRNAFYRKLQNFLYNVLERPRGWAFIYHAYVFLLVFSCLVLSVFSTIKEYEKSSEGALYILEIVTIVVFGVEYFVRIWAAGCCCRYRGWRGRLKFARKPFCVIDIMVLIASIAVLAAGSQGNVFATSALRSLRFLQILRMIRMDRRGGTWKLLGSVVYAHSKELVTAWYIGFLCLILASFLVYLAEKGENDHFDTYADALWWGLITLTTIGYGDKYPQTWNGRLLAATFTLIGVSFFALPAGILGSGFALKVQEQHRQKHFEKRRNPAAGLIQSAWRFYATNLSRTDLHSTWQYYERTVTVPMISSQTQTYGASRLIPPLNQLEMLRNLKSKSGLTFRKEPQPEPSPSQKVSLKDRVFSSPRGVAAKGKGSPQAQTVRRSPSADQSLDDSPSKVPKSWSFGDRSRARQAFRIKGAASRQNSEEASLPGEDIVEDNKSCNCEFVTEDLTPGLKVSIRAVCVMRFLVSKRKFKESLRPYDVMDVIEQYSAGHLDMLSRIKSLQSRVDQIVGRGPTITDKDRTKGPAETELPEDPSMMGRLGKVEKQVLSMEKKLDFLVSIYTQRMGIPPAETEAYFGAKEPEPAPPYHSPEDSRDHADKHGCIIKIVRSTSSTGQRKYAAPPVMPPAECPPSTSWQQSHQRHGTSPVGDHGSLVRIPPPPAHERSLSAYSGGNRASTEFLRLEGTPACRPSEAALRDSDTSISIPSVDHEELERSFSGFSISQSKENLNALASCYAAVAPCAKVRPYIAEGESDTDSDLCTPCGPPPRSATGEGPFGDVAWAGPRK
With `CC[C@H](C(=O)Nc1ccc(N2CCC(F)(F)CC2)cc1)c1ccccc1` the IC50 was 750 nM. `CC[C@H](C(=O)Nc1ccccc1N1CCC(F)(F)CC1)c1ccccc1` gave an IC50 of 2800 nM. Compound `CC[C@H](C(=O)Nc1ccccc1N1CCN(c2ccncc2C)CC1)c1ccccc1` has an IC50 of 21200 nM. Compound `CC[C@H](C(=O)Nc1ccccc1N1CC(c2ccc(Cl)cc2)C1)c1ccccc1` has an IC50 of 890 nM. With `CC[C@H](C(=O)Nc1ccc(N2CC[C@H](F)C2)cc1)c1ccccc1` the IC50 was 120 nM. In the case of `CC[C@H](C(=O)Nc1ccccc1N1CC[C@H](F)C1)c1ccccc1`, the IC50 is reported as 210 nM.

Same assay, conditions: KCNQ2-expressing cells, automated patch-clamp current; at 30 µM (top of the series)
`CC[C@H](C(=O)Nc1ccc(N2CC(c3ccc(Cl)cc3)C2)cc1)c1ccccc1` was tested, and the inhibition was “inactive”. In the case of `CC[C@H](C(=O)Nc1ccc(N2CCN(c3ccncc3C)CC2)cc1)c1ccccc1`, the inhibition is reported as “inactive”. `CC[C@H](C(=O)Nc1ccc(N2CCCC(F)C2)cc1)c1ccccc1` (stereo not given in full) was tested, and the inhibition was “inactive”. In the case of `CC[C@H](C(=O)Nc1ccc(N2CCN(c3cc(C(F)(F)F)ccn3)CC2)cc1)c1ccccc1`, the inhibition is reported as “inactive”.

— PubChem BioAssay AID652152 (Johns Hopkins Ion Channel Center, 2013)
